Experimental data published in patent US8334294B2, “4,8-diphenyl-polyazanaphthalene derivatives” (Almirall, S.A., priority 2007, dated 2012).

molecular target: T1, human p38alfa (SAPKa) enzyme (Homo sapiens, UniProt Q16539); experiment: p38 enzymatic activity inhibition assay (FRET, ATF2 substrate); format: biochemical; conditions: 1 h pre-incubation; ATF2 0.62 μM, ATP 60 μM; 1 h at 25° C.; read-out: p38α IC50
T1 construct: purchased University of Dundee
Protocol: Enzymatic activity assay was performed in 96-well microtiter plates (Corning, catalog number #3686) using a total volume of 50 μl of an assay buffer composed of 50 mM HEPES pH 7.5, 10 mM MgCl2, 1.75 mM Na3VO4.
Various concentrations of the test compound or vehicle controls were pre-incubated for one hour with 0.055 μg/ml of the human p38alfa (SAPKa) enzyme (obtained from University of Dundee). The reaction started by addition of biotinylated ATF2 substrate and ATP in concentrations around their Km values (final concentration 0.62 μM and 60 μM respectively) and took place for one hour at 25° C. Addition of the detection reagents, streptavidin-XL665 and anti-phosphoresidue antibody coupled to Europium cryptate, caused the juxtaposition of the cryptate and the XL665 fluorophore, resulting in fluorescence energy transfer (FRET). The FRET intensity depends on the amount of bounded cryptate antibody, which is proportional to the extent of substrate phosphorylation. FRET intensity was measured using Victor 2V spectrofluorometer. Data were analyzed by non-linear regression (Hill equation) to generate a dose-response curve. The calculated IC50 value is the concentration of the test compound that caused a 50% decrease in the maximal FRET intensity.

T1 sequence (Q16539 whole entry): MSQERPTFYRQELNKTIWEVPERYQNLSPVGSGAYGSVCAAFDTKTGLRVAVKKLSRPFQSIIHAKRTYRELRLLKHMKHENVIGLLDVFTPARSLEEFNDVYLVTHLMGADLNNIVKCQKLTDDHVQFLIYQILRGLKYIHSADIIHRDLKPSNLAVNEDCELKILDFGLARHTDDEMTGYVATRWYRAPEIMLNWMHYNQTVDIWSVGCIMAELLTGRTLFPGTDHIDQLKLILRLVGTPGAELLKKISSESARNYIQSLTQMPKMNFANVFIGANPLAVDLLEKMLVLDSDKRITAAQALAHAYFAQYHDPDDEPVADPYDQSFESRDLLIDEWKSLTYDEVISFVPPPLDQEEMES

Structure (SMILES) | IC50 [nM]
O=c1cc(-c2ccccc2Cl)c2ccnc(-c3c(Cl)cccc3Cl)c2[nH]1 [Example 17, 4-(2-Chlorophenyl)-8-(2,6-dichlorophenyl)-1,7-naphthyridin-2(1H)-one] | 13
O=c1cc(-c2ccccc2Cl)c2cc[n+]([O-])c(-c3c(Cl)cccc3Cl)c2[nH]1 [Example 18, 4-(2-Chlorophenyl)-8-(2,6-dichlorophenyl)-1,7-naphthyridin-2(1H)-one 7-oxide] | 15
CNc1cc(-c2ccccc2Cl)c2cc[n+]([O-])c(-c3c(Cl)cccc3Cl)c2n1 [Example 19, 4-(2-Chlorophenyl)-8-(2,6-dichlorophenyl)-N-methyl-1,7-naphthyridin-2-amine 7-oxide] | 8
CN(C)c1cc(-c2ccccc2Cl)c2cc[n+]([O-])c(-c3c(Cl)cccc3Cl)c2n1 [Example 20, 4-(2-Chlorophenyl)-8-(2,6-dichlorophenyl)-N,N-dimethyl-1,7-naphthyridin-2-amine 7-oxide] | 12
CS(=O)(=O)Nc1cc(-c2ccccc2Cl)c2cc[n+]([O-])c(-c3c(Cl)cccc3Cl)c2n1 [Example 21, N-[4-(2-Chlorophenyl)-8-(2,6-dichlorophenyl)-7-oxido-1,7-naphthyridin-2-yl]methanesulfonamide] | 66
Nc1cc(-c2ccccc2Cl)c2cc[n+]([O-])c(-c3c(Cl)cccc3Cl)c2n1 [Example 22, 4-(2-Chlorophenyl)-8-(2,6-dichlorophenyl)-1,7-naphthyridin-2-amine 7-oxide] | 85
[O-][n+]1ccc2c(-c3ccc(F)cc3Cl)ncnc2c1-c1c(Cl)cccc1Cl [Example 30, 4-(2-Chloro-4-fluorophenyl)-8-(2,6-dichlorophenyl)pyrido[3,4-d]pyrimidine 7-oxide] | 28
Nc1nc(-c2ccc(F)cc2Cl)c2cc[n+]([O-])c(-c3c(Cl)cccc3Cl)c2n1 [Example 32, 4-(2-Chloro-4-fluorophenyl)-8-(2,6-dichlorophenyl)pyrido[3,4-d]pyrimidin-2-amine 7-oxide] | 34

Continued, values first:

IC50 [nM] | Structure (SMILES)
22 | O=C(O)c1cc(-c2ccc(F)cc2F)c2cc[n+]([O-])c(-c3c(F)cccc3F)c2n1 [Example 2, 4-(2,4-Difluorophenyl)-8-(2,6-difluorophenyl)-1,7-naphthyridine-2-carboxylic acid 7-oxide]
6 | O=c1cc(-c2ccc(F)cc2Cl)c2cc[n+]([O-])c(-c3c(F)cccc3F)c2[nH]1 [Example 8, 4-(2-Chloro-4-fluorophenyl)-8-(2,6-difluorophenyl)-1,7-naphthyridin-2(1H)-one 7-oxide]
14 | CN(C)CCNc1cc(-c2ccc(F)cc2Cl)c2cc[n+]([O-])c(-c3c(F)cccc3F)c2n1 [Example 10, N′-[4-(2-Chloro-4-fluorophenyl)-8-(2,6-difluorophenyl)-7-oxido-1,7-naphthyridin-2-yl]-N,N-dimethylethane-1,2-diamine]
3.3 | O=c1cc(-c2ccc(F)cc2Cl)c2cc[n+]([O-])c(-c3c(Cl)cccc3Cl)c2[nH]1 [Example 12, 4-(2-Chloro-4-fluorophenyl)-8-(2,6-dichlorophenyl)-1,7-naphthyridin-2(1H)-one 7-oxide]
35 | [O-][n+]1ccc2c(-c3ccc(F)cc3Cl)ncnc2c1-c1c(F)cccc1F [Example 26, 4-(2-Chloro-4-fluorophenyl)-8-(2,6-difluorophenyl)pyrido[3,4-d]pyrimidine 7-oxide]
